Like-named read-outs stand apart in the source and are kept apart here.
What was measured:
[1] = test system: Vascular smooth muscle cells; assay: DNA synthesis by [3H]-thymidine incorporation in rat vascular smooth muscle cells; type: cell-based; conditions: between 12 and 24 hours after stimulation, control 17614 +/- 1714 cpm
Experimental: DNA synthesis was assayed by [^3H]-thymidine incorporation as described in Grainger et al., Biochem. J., 277:145-151, 1991. Vascular smooth muscle cells were subcultured, grown in DMEM + 10% FCS for 24 hours, made quiescent in serum-free DMEM for 48 hours and restimulated with 10% FCS at "0" hours. [^3H]-thymidine (5 microcuries/ml; available from Amersham International) was added 12 hours after restimulation and the cells were harvested after 24 hours. DNA synthesis by adventitial fibroblasts was determined similarly, except that the cells were made quiescent in serum-free DMEM for 24 hours.

TGF-beta1 mRNA = assay: cells; conditions: Rattus norvegicus, 24 h, read-out: increase of TGF-beta1 mRNA
[2] = test system: Vascular smooth muscle cells
[3] = test system: Vascular smooth muscle cells (BO54); assay: Scratch-migration assay with morphological toxicity grading; type: cell-based, baboon; design: key: - = no migration; +1 = minimal; +2 = mild; +3 = moderate; +4 = marked (maximum density; limit of cell contact inhibition) migration
Experimental: Scratch assays to determine the extent of smooth muscle cell migration inhibition by cytochalasin B were performed in accordance with the following protocol:
Vascular smooth muscle cells (BO54) were derived from explants of baboon aortic smooth muscle, as described in Example 1. The cells were grown in flat bottom, six well tissue culture plates, which hold about 5 ml of medium. The vascular smooth muscle cells were plated at 200,000 cells/well and placed at 37°C in a humidified 5% CO2 incubator for 18 hours. The wells were then scratched with a sterile portion of a single edge razor blade that was held by clamp or pliers and was brought aseptically into contact with the bottom of the well at a 90° angle. The cells from a small area along the scratch were removed by a sterile cotton tipped applicator while the blade was in contact with the bottom of the well. After incubation, the presence of cells in the "scratched" area is indicative of cell migration across the scratch line.
Briefly, a stock solution of cytochalasin B (Sigma Chemical Co.) in dimethyl sulfoxide (DMSO) at 1 mg/ml was prepared. Test dilutions of cytochalasin B or control medium were added. Each experiment included two sets of plates: • A set: Test agent exposure for 1, 3, 6, 8 and 10 days only; and • B set: Test agent exposure for 1, 3, 6, 8 and 10 days, followed by a seven day recovery time with control medium. Both sets of plates were fixed (10% formalin in PBS) and stained (0.02% crystal violet) at the end of the timed exposures. Test concentrations for cytochalasin B were 1, 0.1 and 0.01 µg/ml, and a negative medium control was included. Fresh medium and drug were supplied 3 times per week.
In this Table, "M" indicates Migration Grade, wherein - = no migration; +1 = minimal; +2 = mild; +3 = moderate; and +4 = marked (maximum density; limit of cell contact inhibition) migration of vascular smooth muscle cells into the cleared area adjacent to the scratch. In this Table, "T" denotes a morphological Toxicity Grade, wherein - = no toxicity; +1 = minimal; +2 = mild; +3 = moderate; and +4 = marked toxicity. The migration results are expressed as "Grade in the Cleared Area of the Well / Grade in an Undisturbed Region of the Well." The toxicity values represent a grade for all cells in each well.

Question: `CC/C(=C(\c1ccccc1)c1ccc(OCCN(C)C)cc1)c1ccccc1` [tamoxifen, trans-2-[4-(1,2-diphenyl-1-butenyl)phenoxy]-N,N-dimethylethylamine] was tested. Which “DNA synthesis, [3H]-thymidine incorporation” value ([1]; 10 micromolar) did it give?
Answer: 16898 +/- 3417 cpm

Question: What about the “DNA synthesis, [3H]-thymidine incorporation” value ([1]; 50 micromolar) of the same compound?
Answer: 18002 +/- 4167 cpm

Question: What about the fold induction at 10 µM (TGF-beta1 mRNA) of the same compound?
Answer: ~10

Question: Which results are given for cytochalasin B?
Answer: morphological cytotoxicity grade ([2]; 0.01ug, 24 hrs + 24 hrs): 0; morphological cytotoxicity grade ([2]; 0.01ug, 24 hrs + 48 hrs): 0; morphological cytotoxicity grade ([2]; 0.01ug, 24 hrs + 72 hrs): 0; morphological cytotoxicity grade ([2]; 0.01ug, 24 hrs + 96 hrs): 0; morphological cytotoxicity grade ([2]; 0.01ug, 24 hrs + 120 hrs): 0; morphological cytotoxicity grade ([2]; 0.01ug, Continuous 6 hrs): 0; morphological cytotoxicity grade ([2]; 0.01ug, Continuous 24 hrs (r11, 24 hr exposure series)): 0; morphological cytotoxicity grade ([2]; 0.01ug, Continuous 24 hrs (r17, long term continuous series)): 0; morphological cytotoxicity grade ([2]; 0.01ug, Continuous 48 hrs): 0; morphological cytotoxicity grade ([2]; 0.01ug, Continuous 72 hrs): 0; morphological cytotoxicity grade ([2]; 0.01ug, Continuous 96 hrs): 0; morphological cytotoxicity grade ([2]; 0.01ug, Continuous 120 hrs): 0; morphological cytotoxicity grade ([2]; 0.01ug, Continuous 168 hrs): 0; morphological cytotoxicity grade ([2]; 0.01ug, Continuous 216 hrs): 0; morphological cytotoxicity grade ([2]; 0.01ug, Continuous 264 hrs): 0; morphological cytotoxicity grade ([2]; 0.1 ug, 5 min + 2 hrs): 0; morphological cytotoxicity grade ([2]; 0.1 ug, 5 min + 6 hrs): 0; morphological cytotoxicity grade ([2]; 0.1 ug, 5 min + 24 hrs): 0; morphological cytotoxicity grade ([2]; 0.1 ug, 5 min + 48 hrs): 0; morphological cytotoxicity grade ([2]; 0.1 ug, 5 min + 72 hrs): 0; morphological cytotoxicity grade ([2]; 0.1 ug, 5 min + 96 hrs): 0; morphological cytotoxicity grade ([2]; 0.1 ug, 5 min + 120 hrs): 0; morphological cytotoxicity grade ([2]; 0.1 ug, 24 hrs + 24 hrs): 0.5; morphological cytotoxicity grade ([2]; 0.1 ug, 24 hrs + 48 hrs): 1; morphological cytotoxicity grade ([2]; 0.1 ug, 24 hrs + 72 hrs): 0.5; morphological cytotoxicity grade ([2]; 0.1 ug, 24 hrs + 96 hrs): 0; morphological cytotoxicity grade ([2]; 0.1 ug, 24 hrs + 120 hrs): 0; morphological cytotoxicity grade ([2]; 0.1 ug, Continuous 6 hrs): 0; morphological cytotoxicity grade ([2]; 0.1 ug, Continuous 24 hrs (r11, 24 hr exposure series)): 1; morphological cytotoxicity grade ([2]; 0.1 ug, Continuous 24 hrs (r17, long term continuous series)): 0; morphological cytotoxicity grade ([2]; 0.1 ug, Continuous 48 hrs): 1; morphological cytotoxicity grade ([2]; 0.1 ug, Continuous 72 hrs): 1; morphological cytotoxicity grade ([2]; 0.1 ug, Continuous 96 hrs): 2; morphological cytotoxicity grade ([2]; 0.1 ug, Continuous 120 hrs): 1; morphological cytotoxicity grade ([2]; 0.1 ug, Continuous 168 hrs): 1; morphological cytotoxicity grade ([2]; 0.1 ug, Continuous 216 hrs): 1; morphological cytotoxicity grade ([2]; 0.1 ug, Continuous 264 hrs): 1; morphological cytotoxicity grade ([2]; 1 ug, 5 min + 2 hrs): 0; morphological cytotoxicity grade ([2]; 1 ug, 5 min + 6 hrs): 1; morphological cytotoxicity grade ([2]; 1 ug, 5 min + 24 hrs): 0.5; morphological cytotoxicity grade ([2]; 1 ug, 5 min + 48 hrs): 1; morphological cytotoxicity grade ([2]; 1 ug, 5 min + 72 hrs): 1; morphological cytotoxicity grade ([2]; 1 ug, 5 min + 96 hrs): 1; morphological cytotoxicity grade ([2]; 1 ug, 5 min + 120 hrs): 1; morphological cytotoxicity grade ([2]; 1 ug, 24 hrs + 24 hrs): 3; morphological cytotoxicity grade ([2]; 1 ug, 24 hrs + 48 hrs): 4; morphological cytotoxicity grade ([2]; 1 ug, 24 hrs + 72 hrs): 4; morphological cytotoxicity grade ([2]; 1 ug, 24 hrs + 96 hrs): 4; morphological cytotoxicity grade ([2]; 1 ug, 24 hrs + 120 hrs): 4; morphological cytotoxicity grade ([2]; 1 ug, Continuous 6 hrs): 3; morphological cytotoxicity grade ([2]; 1 ug, Continuous 24 hrs (r11, 24 hr exposure series)): 3; morphological cytotoxicity grade ([2]; 1 ug, Continuous 24 hrs (r17, long term continuous series)): 3; morphological cytotoxicity grade ([2]; 1 ug, Continuous 48 hrs): 3; morphological cytotoxicity grade ([2]; 1 ug, Continuous 72 hrs): 3; morphological cytotoxicity grade ([2]; 1 ug, Continuous 96 hrs): 3; morphological cytotoxicity grade ([2]; 1 ug, Continuous 120 hrs): 3; morphological cytotoxicity grade ([2]; 1 ug, Continuous 168 hrs): 4; morphological cytotoxicity grade ([2]; 1 ug, Continuous 216 hrs): 4; morphological cytotoxicity grade ([2]; 1 ug, Continuous 264 hrs): 4; cytotoxicity grade ([2]; 1 µg/ml, anti-migration/contraction effective dose, grade 1 = minimal): 1; morphological cytotoxicity grade ([2]; 10 ug, 5 min + 2 hrs): 0.5; morphological cytotoxicity grade ([2]; 10 ug, 5 min + 6 hrs): 4; morphological cytotoxicity grade ([2]; 10 ug, 5 min + 24 hrs): 4; morphological cytotoxicity grade ([2]; 10 ug, 5 min + 48 hrs): 4; morphological cytotoxicity grade ([2]; 10 ug, 5 min + 72 hrs): 4.5; morphological cytotoxicity grade ([2]; 10 ug, 5 min + 96 hrs): 5; morphological cytotoxicity grade ([2]; 10 ug, 5 min + 120 hrs): 5; morphological Toxicity Grade ([3]; 7-day Recovery Post Exposure, 1.0 µg/mL, Day 1): +2; morphological Toxicity Grade ([3]; 7-day Recovery Post Exposure, 1.0 µg/mL, Day 3): +1; morphological Toxicity Grade ([3]; 7-day Recovery Post Exposure, 1.0 µg/mL, Day 6): +3; morphological Toxicity Grade ([3]; 7-day Recovery Post Exposure, 1.0 µg/mL, Day 8): +3; morphological Toxicity Grade ([3]; 7-day Recovery Post Exposure, 1.0 µg/mL, Day 10): +3; morphological Toxicity Grade ([3]; Continuous Exposure, 0.1 µg/mL, Day 3): +1; morphological Toxicity Grade ([3]; Continuous Exposure, 0.1 µg/mL, Day 6): +1; morphological Toxicity Grade ([3]; Continuous Exposure, 0.1 µg/mL, Day 8): +1; morphological Toxicity Grade ([3]; Continuous Exposure, 0.1 µg/mL, Day 10): +1; morphological Toxicity Grade ([3]; Continuous Exposure, 1.0 µg/mL, Day 1): +3; morphological Toxicity Grade ([3]; Continuous Exposure, 1.0 µg/mL, Day 3): +3

From EP1510220B1 (priority 1993, dated 1994)
